# Reference: US12589161B2, “PEGylated synthetic KL4 peptide, compositions and methods thereof” (THE UNIVERSITY OF HONG KONG, priority 2019, dated 2026)
# Non-standard residues stand in square brackets, D forms with d. Residues, ends and D or L forms follow the SMILES beside them. PEG24 = NCCOCCOCCOCCOCCOCCOCCOCCOCCOCCOCCOCCOCCOCCOCCOCCOCCOCCOCCOCCOCCOCCOCCOCCOCCC(=O)O
# Key:
# [1] = Circular dichroism, temperature ramping; assay type: physicochemical; details: 6 to 94 °C, 5 mM Tris-HCl buffer, 0.1 mg/mL
# Procedure: KL4 and PEG6KL4 peptides were dissolved in 5 mM Tris-HCl buffer at a final concentration of 0.1 mg/mL in 0.1% (v/v) DMSO. PEG12KL4 and PEG24KL4 were dissolved in 5 mM Tris-HCl buffer at a final concentration of 0.1 mg/mL without DMSO. CD spectra were acquired on a Chirascan™ Spectrometer (Applied Photophysics, Leatherhead, UK). For temperature ramping experiment, far-UV CD spectra were obtained with the peptide solution incubated from 6° C. to 94° C. Spectra were recorded from 260 to 190 nm using a 0.5 mm path length and were processed using Chirascan software where a spectrum of the peptide free solution was subtracted and Savitzky-Gorlay smoothing applied.
# BEAS-2B cells = experiment: GAPDH siRNA transfection on BEAS-2B cells (Western blot); assay type: cell-based, human; details: one-way ANOVA, Tukey, n.s. not significant, * p<0.05, ** p<0.01, *** p<0.001
# Procedure: (§1) A549 cells, BEAS-2B and Calu-3 cells were seeded in six-well plates at a density of 1.6×10^5 cells per well, 2×10^5 cells per well and 3×10^5 cells per well, respectively, one to two days before transfection. The cells were transfected with peptide/siRNA complexes at 5:1 to 20:1 ratio (w/w) containing GAPDH siRNA or negative control siRNA (6 to 100 nM) in OptiMEM I reduced serum medium. Lipofectamine 2000 was used for comparison. After 5 h of incubation, the cells were washed and replaced with serum supplemented cell culture medium. At 72 h post-transfection, the cells were washed and lysed with cell lysis buffer. Western blotting assay was performed to analyze the level of GAPDH protein as previously described. The GAPDH expression was analyzed by densitometry of Western blots using ImageJ software (Version 1.52). The GAPDH expression was normalized with the expression of […]-actin of the corresponding sample. The remaining GAPDH expression was the normalized GAPDH expression of positive control divided by the normalized GAPDH expression of negative control.
# siRNA = experiment: Fluorescence displacement assay of siRNA binding and heparin release; details: 10:1 ratio, heparin titration
# Procedure: The siRNA binding affinity of the peptides was investigated by fluorescence displacement assay using negative control siRNA. The siRNA was added into 1× SYBR® Gold Tris-acetate-EDTA (TAE) buffer and incubated for 30 min at room temperature. The fluorescence intensity was quantified by fluorescence spectrophotometer (SpectraMax® M4, Molecular devices, LLC., CA, USA) at 495 nm excitation and 537 nm emission wavelengths. The peptides at concentration of 1 mg/mL were titrated to the siRNA/dye mixtures. The fluorescence intensity of siRNA/dye mixture in the presence of peptides was expressed as a percentage of that of the siRNA/dye mixture without peptides. The background fluorescence was subtracted from all measurements before analysis. Percentage change of fluorescence intensity was plotted against the weight ratio of peptides to siRNA upon titration. To further investigate the binding profile of the peptide/siRNA complexes, heparin was added to dissociate the complexes and release the siRNA. […] The heparin diluted in TAE buffer at concentration of 10 or 100 i.u./μL was titrated into the peptide/siRNA/dye mixture and the fluorescence intensity was measured as described above. Percentage change of fluorescence intensity was plotted against the amount of heparin upon titration. The data was fit to a four-parameter logistic sigmoidal curve and the EC50 and Hill slope were calculated.
# Calu-3 cells = experiment: GAPDH siRNA transfection on Calu-3 cells (Western blot); assay type: cell-based, human; details: one-way ANOVA, Tukey, n.s. not significant, * p<0.05, ** p<0.01, *** p<0.001
# Procedure: as §1
# [2] = Solubility of peptides in water; assay type: physicochemical
# [3] = Charge ratio of peptide to siRNA at 10:1 weight ratio
# Description: This is partly because the uncharged PEG chains reduced the effective charge ratio between cationic KL4 and siRNA [77]. The charge ratios of KL4, PEG6KL4, PEG12KL4 and PEG24KL4 to siRNA at 10:1 weight ratio are 6.1 to 1, 5.5 to 1, 4.9 to 1 and 4.2 to 1, respectively. […] The molecular weight of the PEG used in this study, which is below 1,200 Da, is relatively low compared with others where PEG of 2,000 to 5,000 Da was often used. Therefore, PEGylated KL4 peptide/siRNA complexes remained to be positively charged, which is suitable for cellular entry. […] In addition, PEG also provides steric hindrance between the interaction of KL4 and siRNA that weakens the binding, promoting the release of siRNA from the complexes after the addition of heparin.
# A549 cells = experiment: GAPDH siRNA transfection on A549 cells (Western blot); assay type: cell-based, human; details: A549, 10:1 ratio, 6 to 100 nM siRNA, 72 h
# Procedure: A549 cells were seeded in 6-well plates at a density of 1.5×10^5 cells per well one day before transfection. The cells were transfected with peptide/siRNA complexes containing 50 pmol of GAPDH siRNA or negative control siRNA per well (50 nM). The complexes were prepared in OptiMEM I reduced serum medium at 10:1, 15:1 and 20:1 ratios (w/w). Lipofectamine 2000 was used as control. The complexes were added to the cells and incubated for 4 h at 5% CO2, 37° C. before being washed with PBS. The transfection medium was removed and replaced with serum supplemented cell culture medium. At 72 h post-transfection, the cells were washed and lysed with cell lysis buffer. Western blotting assay was performed to analyze the level of GAPDH protein. The GAPDH expression was analyzed by densitometry of Western Blots using Image J software. The remaining GAPDH expression was the density of the GAPDH band of positive control (normalized with beta-actin of the corresponding sample) divided by the GAPDH band of negative control (normalized with the beta actin band of the corresponding sample).
# as §1
smiles,measurement,setting,value
CC(C)C[C@H](NC(=O)[C@H](CC(C)C)NC(=O)[C@H](CC(C)C)NC(=O)[C@H](CC(C)C)NC(=O)[C@H](CCCCN)NC(=O)[C@H](CC(C)C)NC(=O)[C@H](CC(C)C)NC(=O)[C@H](CC(C)C)NC(=O)[C@H](CC(C)C)NC(=O)[C@H](CCCCN)NC(=O)[C@H](CC(C)C)NC(=O)[C@H](CC(C)C)NC(=O)[C@H](CC(C)C)NC(=O)[C@H](CC(C)C)NC(=O)[C@H](CCCCN)NC(=O)[C@H](CC(C)C)NC(=O)[C@H](CC(C)C)NC(=O)[C@H](CC(C)C)NC(=O)[C@H](CC(C)C)NC(=O)[C@H](CCCCN)NC(=O)CCOCCOCCOCCOCCOCCOCCOCCOCCOCCOCCOCCOCCOCCOCCOCCOCCOCCOCCOCCOCCOCCOCCOCCOCCN)C(=O)N[C@@H](CCCCN)C(N)=O [PEG24KL4] (H-[PEG24]KLLLLKLLLLKLLLLKLLLLK-NH2; N-terminus assumed),secondary structure at different temperatures (far-UV CD),[1],adopted an alpha-helical structure at all tested temperatures
same,Comparison within the same peptide prepared at different peptide to siRNA ratios,BEAS-2B cells,5:1 vs 20:1 *
same,binding affinity between peptide and siRNA,siRNA,weakest
same,Comparison within the same peptide prepared at different peptide to siRNA ratios,Calu-3 cells,n.s.
same,solubility,[2],> 2000 µg/mL
same,charge ratio of peptide to siRNA,[3],4.2 to 1
same,siRNA transfection efficiency among the four peptides at different amounts of siRNA,A549 cells,lowest transfection efficiency
